Test results: ChEMBL document CHEMBL1201862, “PubChem BioAssay data set” (2004)
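Tested at 5 concentrations; 48 h exposure; 96-well plates; endpoints linearly interpolated, else capped at highest concentration. GI50 marks 50% less growth.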 Calls of active or inactive are those of the source. Rule as the data show it: active = GI50 up to about 1.1 µM and inactive = higher.

Legend:
Experiment in all cases: DTP human tumour cell line panel, 48 h
SK-MEL-5 = test system: SK-MEL-5
COLO 205 = test system: COLO 205
LOX IMVI = test system: LOX IMVI
SNB-19 = test system: SNB-19
NCI-H460 = test system: NCI-H460
KM12 = test system: KM12
UO-31 = test system: UO-31
ACHN = test system: ACHN
TK-10 = test system: TK-10
HCT-116 = test system: HCT-116
OVCAR-3 = test system: OVCAR-3
HOP-62 = test system: HOP-62
KM-20L2 = test system: KM-20L2
DLD-1 = test system: DLD-1
SNB-78 = test system: SNB-78
DMS-273 = test system: DMS-273
A498 = test system: A498
Malme-3M = test system: Malme-3M
M19-MEL = test system: M19-MEL
DMS-114 = test system: DMS-114

Measured: GI50

CCOC(=O)C(NC(C)=O)(Nc1ccc(F)cc1)C(F)(F)F (stereo unspecified)
inactive: SK-MEL-5 3.03 µM | COLO 205 > 100 µM | LOX IMVI > 100 µM | SNB-19 > 100 µM | NCI-H460 7.21 µM | KM12 83.2 µM | UO-31 34.8 µM | ACHN 2.62 µM | TK-10 > 100 µM | HCT-116 13.4 µM | OVCAR-3 > 100 µM

C=CCn1c2ccccc2c2c(C)c3cnccc3c(C)c21
inactive: HOP-62 9.98 µM | SK-MEL-5 6.82 µM | COLO 205 6.4 µM | LOX IMVI 6.82 µM | KM-20L2 6.75 µM | SNB-19 12.9 µM | DLD-1 7.08 µM | NCI-H460 4.47 µM | SNB-78 22.3 µM | DMS-273 6.92 µM | A498 6.34 µM | KM12 4.38 µM | UO-31 4.39 µM | Malme-3M 13.8 µM | HCT-116 4.48 µM | OVCAR-3 11.1 µM | M19-MEL 9.23 µM

Cn1cnc(/C=C/C#N)c1
inactive: HOP-62 > 100 µM | SK-MEL-5 > 100 µM | COLO 205 > 100 µM | SNB-19 > 100 µM | NCI-H460 > 100 µM | A498 > 100 µM | KM12 > 100 µM | UO-31 > 100 µM | ACHN > 100 µM | Malme-3M > 100 µM | TK-10 > 100 µM | OVCAR-3 > 100 µM

O=C1C(Cl)N(c2ccc(Cl)cc2Cl)C1c1c[nH]c2ccccc12 (stereo unspecified)
inactive: HOP-62 > 100 µM | SK-MEL-5 > 100 µM | COLO 205 > 100 µM | KM-20L2 > 100 µM | SNB-19 6.01 µM | DMS-114 > 100 µM | NCI-H460 > 100 µM | KM12 > 100 µM | UO-31 4.75 µM | Malme-3M > 100 µM | TK-10 > 100 µM | HCT-116 91.2 µM | OVCAR-3 78.3 µM | M19-MEL > 100 µM

C=CC12CN(C)C3C4COC(CC41)C1(C(=O)Nc4ccccc41)C32 (stereo unspecified)
inactive: HOP-62 > 147 µM | SK-MEL-5 > 200 µM | COLO 205 > 149 µM | LOX IMVI > 150 µM | KM-20L2 > 151 µM | SNB-19 > 200 µM | DLD-1 198 µM | DMS-114 > 144 µM | NCI-H460 166 µM | SNB-78 176 µM | DMS-273 > 200 µM | A498 9.29 µM | KM12 168 µM | UO-31 > 181 µM | Malme-3M 174 µM | HCT-116 158 µM | OVCAR-3 > 200 µM | M19-MEL > 148 µM

O=C(O)CN(CC(=O)O)C1CCCCC1N(CC(=O)O)CC(=O)NCCN=C=S (stereo unspecified)
inactive: HOP-62 > 100 µM | SK-MEL-5 > 100 µM | LOX IMVI > 100 µM | SNB-19 > 100 µM | NCI-H460 > 100 µM | A498 > 100 µM | KM12 > 100 µM | UO-31 > 100 µM | ACHN > 100 µM | Malme-3M > 100 µM | TK-10 > 100 µM | HCT-116 > 100 µM | OVCAR-3 > 100 µM

CC(C)(C)C1(c2ccc(C3(c4ccccc4)Oc4ccccc4S3)[nH]2)Oc2ccccc2S1 (stereo unspecified)
inactive: HOP-62 > 100 µM | SK-MEL-5 > 100 µM | LOX IMVI > 100 µM | KM-20L2 > 100 µM | SNB-19 > 100 µM | DLD-1 > 100 µM | DMS-114 > 100 µM | NCI-H460 > 100 µM | SNB-78 > 100 µM | DMS-273 > 100 µM | UO-31 90.4 µM | ACHN > 100 µM | Malme-3M > 100 µM | TK-10 > 100 µM | HCT-116 > 100 µM | OVCAR-3 > 100 µM | M19-MEL > 100 µM

CCOC(=O)/C(=N/Nc1ccc(C)cc1)N1C(=S)N(C)N=C(C)C=C1S
inactive: SK-MEL-5 > 100 µM | COLO 205 > 100 µM | SNB-19 69.8 µM | NCI-H460 > 100 µM | KM12 > 100 µM | UO-31 > 100 µM | ACHN > 100 µM | TK-10 45.7 µM | HCT-116 > 100 µM | OVCAR-3 > 100 µM

COc1cc2c(cc1OC)C1Cc3sccc3CN1CC2 (stereo unspecified)
inactive: HOP-62 > 100 µM | SK-MEL-5 > 100 µM | LOX IMVI > 100 µM | KM-20L2 > 100 µM | SNB-19 > 100 µM | DLD-1 > 100 µM | DMS-114 > 100 µM | NCI-H460 > 100 µM | SNB-78 > 100 µM | DMS-273 > 100 µM | UO-31 > 100 µM | ACHN > 100 µM | Malme-3M > 100 µM | TK-10 > 100 µM | HCT-116 > 100 µM | OVCAR-3 > 100 µM | M19-MEL > 100 µM

COc1cc(-c2ccc(/N=N/c3ccc4c(S(=O)(=O)O)cc(S(=O)(=O)O)c(N)c4c3O)c(OC)c2)ccc1/N=N/c1ccc2c(S(=O)(=O)O)cc(S(=O)(=O)O)c(N)c2c1O
inactive: HOP-62 > 100 µM | SK-MEL-5 > 100 µM | COLO 205 > 100 µM | LOX IMVI > 100 µM | KM-20L2 > 100 µM | SNB-19 > 100 µM | DLD-1 > 100 µM | DMS-114 > 100 µM | NCI-H460 > 100 µM | SNB-78 > 100 µM | DMS-273 > 100 µM | A498 > 100 µM | KM12 > 100 µM | UO-31 > 100 µM | Malme-3M > 100 µM | HCT-116 > 100 µM | OVCAR-3 > 100 µM | M19-MEL > 100 µM

NC(=O)CCC(N=C(N)c1csc(C2OC(CO)C(O)C2O)n1)C(=O)O (stereo unspecified)
inactive: SK-MEL-5 > 100 µM | COLO 205 > 100 µM | LOX IMVI > 100 µM | KM-20L2 > 100 µM | DLD-1 > 100 µM | DMS-114 > 100 µM | SNB-78 > 100 µM | DMS-273 > 100 µM | A498 > 100 µM | KM12 > 100 µM | ACHN > 100 µM | Malme-3M > 100 µM | TK-10 > 100 µM

O=c1c(Cc2ccc(Cc3c(O)oc4ccccc4c3=O)cc2)c(O)oc2ccccc12
inactive: HOP-62 > 100 µM | SK-MEL-5 > 100 µM | COLO 205 > 100 µM | LOX IMVI > 100 µM | NCI-H460 > 100 µM | A498 > 100 µM | UO-31 42 µM | Malme-3M > 100 µM | TK-10 > 100 µM | HCT-116 > 100 µM | OVCAR-3 > 100 µM
